Laboratory results published in US7638505B2, “Organophosphoric derivatives useful as anti-parasitic agents” (priority 2005, dated 2009).
Read-outs that look alike come from different tables or passages of the source.

What was measured:
[1] = test system: Plasmodium falciparum strain Dd2; assay: in vitro anti-malarial activity, [3H]hypoxanthine incorporation, strain Dd2; format: cell-based; conditions: for activity in the Dd2 cell line with respect to the reference compounds fosmidomycin and FR900098: same conditions, similar experimental setup
Protocol: (§1) The in vitro anti-malarial activity of some of the compounds prepared in example 1 was determined as follows. Intraerythrocytic stages of the Plasmodium falciparum strains 3D7 and Dd2 were respectively incubated with serial dilutions of the relevant compounds and the viability of the parasites was assessed by their ability to incorporate [^3H]hypoxanthine into DNA. Inhibition results were expressed as IC50.

[2] = test system: Plasmodium falciparum strain 3D7; assay: in vitro anti-malarial activity, [3H]hypoxanthine incorporation, strain 3D7; format: cell-based; conditions: P. falciparum strain 3D7, intraerythrocytic stages
Protocol: as §1

[3] = test system: Plasmodium falciparum; conditions: cited from earlier work
[4] = test system: Plasmodium vinckei; conditions: cited from earlier work
[5] = test system: acute, uncomplicated Plasmodium falciparum malaria; conditions: clinical trials, Gabon and Thailand; cited from earlier work
[6] = in vivo; cited from earlier work
[7] = test system: Plasmodium falciparum strain Dd2; conditions: P. falciparum Dd2, WO 2005/048715; cited from earlier work
[8] = Plasmodium falciparum, DD2, read-out: IC50 (μM) Dd2

`COc1ccc(C(CCN(O)C=O)P(=O)(O)O)cc1` (centres unmarked) [Compound 1c, 3-(N-hydroxyformamido)-1-(4-methoxyphenyl)propylphosphonic acid] showed an IC50 [1, 8] of 0.2 µM and an IC50 ([2]; Plasmodium falciparum) of 0.36 µM.
With `O=CN(O)CCC(c1ccc(Cl)c(Cl)c1)P(=O)(O)O` (centres unmarked) [Compound 1e, 3-(N-hydroxyformamido)-1-(3,4-dichlorophenyl)propylphosphonic acid] the IC50 ([1]; Plasmodium falciparum, P. falciparum strain Dd2, intraerythrocytic stages, read-out: IC50 (μM) Dd2) was 0.028 µM, the “in vitro antimalarial activity relative to fosmidomycin” value ([1]; inhibition of parasite growth, strain not named in the sentence (table: Dd2 and 3D7)) was “twelve-fold more active than fosmidomycin” and the “in vitro antimalarial activity relative to FR900098” value ([1]; strain not named in the sentence (table: Dd2 and 3D7)) was “exceeds the activity of FR900098”. For the same compound, the IC50 ([2]; Plasmodium falciparum) was 0.09 µM.
For `CC(=O)N(O)CCC(c1ccc(Cl)cc1)P(=O)(O)O` (centres unmarked) [Compound 2d, 3-(N-hydroxyacetamido)-1-(4-chlorophenyl)propylphosphonic acid], the IC50 [1, 8] was 0.095 µM and the IC50 ([2]; Plasmodium falciparum) was 0.35 µM.
For `CC(=O)N(O)CCC(c1ccc(Cl)c(Cl)c1)P(=O)(O)O` (centres unmarked) [Compound 2e, 3-(N-hydroxyacetamido)-1-(3,4-dichlorophenyl)propylphosphonic acid], the IC50 [1, 8] was 0.09 µM and the IC50 ([2]; Plasmodium falciparum) was 0.25 µM.
For `CC(=O)N(O)CCC(c1ccc(C#N)cc1)P(=O)(O)O.N.N` (centres unmarked) [Compound 104b, Bisammonium 3-[N-acetyl. N-(hydroxy)amino]-1-(4-cyanophenyl)-propylphosphonate], the “activity in the Dd2 cell line with respect to the reference compounds fosmidomycin and FR900098” value [1] was “substantial higher activity”.
For `N#Cc1ccc(C(CCN(O)C=O)P(=O)(O)O)cc1` (centres unmarked) [Compound 105, 3-[N-formyl,N-(hydroxy)amino]-1-(4-cyanophenyl)-propylphosphonic acid], the “activity in the Dd2 cell line with respect to the reference compounds fosmidomycin and FR900098” value [1] was “substantial higher activity”.
For `CC(=O)N(O)CCCP(=O)(O)O` [FR900098, reference compound], the IC50 ([1]; P. falciparum strain Dd2, intraerythrocytic stages, read-out: IC50 (μM) Dd2) is listed as 0.18 µM, the “activity relative to fosmidomycin against Plasmodium falciparum in vitro” value [3] is listed as “approximately twice more active than fosmidomycin” and the IC50 [2] is listed as 0.32 µM. The “activity relative to fosmidomycin in Plasmodium vinckei mouse model” value [4] was “approximately twice more active than fosmidomycin”.
For `O=CN(O)CCCP(=O)(O)O` [fosmidomycin], the “treatment of patients suffering from acute, uncomplicated Plasmodium falciparum malaria” value [5] is given as “proved to be efficient”, the IC50 [1, 8] is given as 0.36 µM and the plasma half-life [6] is given as “short”. For the same compound, the resorption rate [6] was “moderate” and the IC50 ([2]; Plasmodium falciparum) was 1.1 µM.
For `CC(=O)N(O)CCC(c1ccccc1)P(=O)(O)O.OCCNCCO` (stereo not drawn) [α-phenyl-FR900098 diethanolammonium salt], the “IC50 value relative to FR900098” value [7] is given as “higher than FR900098”.
For `O=CN(O)CCC(c1ccccc1)P(=O)(O)O.OCCNCCO` (stereo not drawn) [α-phenyl-fosmidomycin diethanolammonium salt], the “IC50 value relative to fosmidomycin (times less)” value [7] is given as 4.5 times.
